Test results from patent publication US20020151595A1, “Carboxylic acid amides having antithrombotic activity” (priority 2001, published 2002).

The compounds below were run against T1, human factor Xa (Homo sapiens, UniProt P00742) (assay: Inhibition of factor Xa, enzyme-kinetic measurement with chromogenic substrate). Settings: chromogenic substrate Chromozym X 200 μMol/l, pH 8.0, 37° C., photometric at 405 nm.
T1 construct: human factor Xa; purchased Roche
Assay type: biochemical
Description: Method: Enzyme-kinetic measurement with chromogenic substrate. The quantity of anpnitroaniline (pNA) released from the colourless chromogenic substrate by human factor Xa is determined photometrically at 405 nm. It is proportional to the activity of the enzyme used. The inhibition of the enzyme activity by the test substance (in relation to the solvent control) is determined at various concentrations of test substance and from this the IC50 is calculated, as the concentration which inhibits the factor Xa used by 50%.
Material: Tris(hydroxymethyl)-aminomethane buffer (100 mmol) and sodium chloride (150 mMol), pH 8.0
Factor Xa (Roche), spec. activity: 10 U/0.5 ml, final concentration: 0.175 U/ml per reaction mixture
Substrate Chromozym X (Roche), final concentration: 200 μMol/l per reaction mixture
Procedure: 10 μl of a 23.5-times concentrated starting solution of the test substance or solvent (control), 175 μl of tris(hydroxymethyl)-aminomethane buffer and 25 μl of a 1.65 U/ml Factor Xa working solution are incubated for 10 minutes at 37° C. After the addition of 25 μl of Chromozym X working solution ([…]) the sample is measured in a photometer (SpectraMax 250) at 405 nm for 150 seconds at 37° C.
1. Determining the maximum increase (deltaOD/minutes) over 3 measuring points.
2. Determining the % inhibition based on the solvent control.
3. Plotting a dosage/activity curve (% inhibition vs substance concentration).
4. Determining the IC50 by interpolating the X value (substance concentration) of the dosage/activity curve at Y=50% inhibition.

T1 sequence (P00742 235-488 limits assumed): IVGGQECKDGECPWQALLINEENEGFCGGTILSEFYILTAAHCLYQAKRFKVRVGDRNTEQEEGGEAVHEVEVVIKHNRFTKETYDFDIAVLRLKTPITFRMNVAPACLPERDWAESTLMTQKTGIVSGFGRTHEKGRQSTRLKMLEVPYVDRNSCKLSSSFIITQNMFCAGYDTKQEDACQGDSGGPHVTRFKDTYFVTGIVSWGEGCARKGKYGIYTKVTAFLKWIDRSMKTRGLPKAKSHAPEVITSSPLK
T1 sequence (P00742 41-179 partner limits assumed): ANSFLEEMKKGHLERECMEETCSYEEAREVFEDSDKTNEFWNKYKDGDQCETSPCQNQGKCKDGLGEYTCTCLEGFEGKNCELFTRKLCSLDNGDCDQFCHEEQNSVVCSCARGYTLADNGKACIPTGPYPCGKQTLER

IC50 [µM]	Compound
0.028	Cc1cc(NC(=O)C(C)(C)c2cccc(C(=N)N)c2)ccc1C(=O)N1CCCC1 [(1)]
0.011	N=C(N)c1ccc(O)c(CC(=O)Nc2ccc(C(=O)N3CCCC3)c(C(F)(F)F)c2)c1 [(4)]
0.32	Cc1cc(NC(=O)Cc2cc(C(=N)N)ccc2O)ccc1C(=O)C1CCCNC1 (stereo not shown) [(2)]
0.033	N=C(N)c1ccc(O)c(CC(=O)Nc2ccc(C(=O)N3CCCC3)c(Cl)c2)c1 [(3)]
